Measurements as given in US20250206722A1, “SMALL MOLECULE INHIBITORS OF TEA DOMAIN FAMILY MEMBERS” (The Scripps Research Institute, priority 2022, published 2025).

Experiments:
[1] = test system: transcriptional activity of TEADs; test: TEAD reporter assay (MCF7 TEAD-LUC reporter cells); type: cell-based; settings: Homo sapiens, 24 hours, BrightGlo luminescence
Outline: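 Luminescence (BrightGlo) was read after 24 h of compound treatment at 37 °C, 5 % CO2. Cells had been seeded at 5,000 per well in DMEM with 10 % FBS and insulin and rested 24 h first. Dosing used 20 points, 1:2 dilution from 20 μM final, triplicates.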

NCI-H226 cells = test: NCI-H226 proliferation assay (in house); type: cell-based; settings: Homo sapiens, 120 h, 5 days, Cell TiterGlo, 20-point 1:2 dilution from 20 μM
Outline: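 Viability by CellTiter-Glo luminescence after 5-day compound exposure at 37 °C, 5% CO2. Compounds added 24 h post-seeding (500 cells/well, RPMI 1640 with 10% FBS) as 20-point, 2-fold series from 20 μM final, triplicate wells.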

Compound | IC50 [1] | IC50 (NCI-H226 cells)
C=CC(=O)N1CCN(c2nccnc2C(O)c2ccc(C(F)(F)F)cc2)CC1 (stereo not drawn) [Example 97, 1-(4-(3-(hydroxy(4-(trifluoromethyl)phenyl)methyl)pyrazin-2-yl)piperazin-1-yl)prop-2-en-1-one] | 3 nM | 0.019 µM
C=CC(=O)N1CCN(c2ncc(O)nc2Nc2ccc(C(F)(F)F)cc2)CC1 [Example 111, 1-(4-(5-hydroxy-3-((4-(trifluoromethyl)phenyl)amino)pyrazin-2-yl)piperazin-1-yl)prop-2-en-1-one] | 239 nM | 5.64 µM
C=CC(=O)N1CC(Nc2nccnc2Nc2ccc(C(F)(F)F)nc2)C1 [Example 62, 1-(3-((3-((6-(trifluoromethyl)pyridin-3-yl)amino)pyrazin-2-yl)amino)azetidin-1-yl)prop-2-en-1-one] | 10.7 nM | 8.67 µM
C=C(F)C(=O)N1CCC(c2cnc(C)nc2Oc2ccc(C(F)(F)F)nc2)CC1 [Example 132, 2-fluoro-1-(4-(2-methyl-4-((6-(trifluoromethyl)pyridin-3-yl)oxy)pyrimidin-5-yl)piperidin-1-yl)prop-2-en-1-one] | 451 nM | 4.31 µM
C=CC(=O)N1CCN(c2nc(OC)ncc2Nc2ccc(C(F)(F)F)cc2)CC1 [Example 133, 1-(4-(2-methoxy-5-((4-(trifluoromethyl)phenyl)amino)pyrimidin-4-yl)piperazin-1-yl)prop-2-en-1-one] | 16.5 nM | 0.722 µM
C=C(C(=O)N1CCC(c2nccnc2Oc2ccc(C(F)(F)F)nc2)CC1)C(F)(F)F [Example 81, 2-(trifluoromethyl)-1-(4-(3-((6-(trifluoromethyl)pyridin-3-yl)oxy)pyrazin-2-yl)piperidin-1-yl)prop-2-en-1-one] | 9.5 nM | 2.97 µM
C=CC(=O)N1CCN(c2ncccc2C(=O)N2CCC(F)(F)CC2)CC1 [Example 161, 1-(4-(3-(4,4-difluoropiperidine-1-carbonyl)pyridin-2-yl)piperazin-1-yl)prop-2-en-1-one] | 1730 nM | > 20 µM

Next, values leading:

IC50 [1] | IC50 (NCI-H226 cells) | Compound
1.2 nM | 0.034 µM | N#C/C=C\C(=O)N1CCN(c2nccnc2Nc2ccc(C(F)(F)F)cc2)CC1 [Example 182, (Z)-4-oxo-4-(4-(3-((4-(trifluoromethyl)phenyl)amino)pyrazin-2-yl)piperazin-1-yl)but-2-enenitrile]
> 20000 nM | > 20 µM | C=C(C)C(=O)N1CCN(c2nccnc2Nc2ccc(C(F)(F)F)nc2)CC1 [Example 177, 2-methyl-1-(4-(3-((6-(trifluoromethyl)pyridin-3-yl)amino)pyrazin-2-yl)piperazin-1-yl)prop-2-en-1-one]
166 nM | > 20 µM | C=CC(=O)N1CCN(c2nccnc2C(=O)N2CCC(C(F)(F)F)CC2)CC1 [Example 103, 1-(4-(3-(4-(trifluoromethyl)piperidine-1-carbonyl)pyrazin-2-yl)piperazin-1-yl)prop-2-en-1-one]
4 nM | 0.043 µM | C=CC(=O)N1CCN(c2nccnc2Nc2ccc(C(F)F)nc2)CC1 [Example 47, 1-(4-(3-((6-(difluoromethyl)pyridin-3-yl)amino)pyrazin-2-yl)piperazin-1-yl)prop-2-en-1-one]
74 nM | 1.18 µM | C=CC(=O)N1CCN(c2nccnc2C(=O)NC2CC(F)(F)C2)CC1 [Example 100, 3-(4-acryloylpiperazin-1-yl)-N-(3,3-difluorocyclobutyl)pyrazine-2-carboxamide]
